From paper PMC6094432, “Design, Synthesis and Evaluation of Substituted Aryl-2-Nitrovinyl Derivatives as Small Molecules Proteasome Inhibitors” (Iranian Journal of Pharmaceutical Research : IJPR, 2018)
Read-outs that look alike come from different tables or passages of the source.

Columns and labels:
[1] = system: MCF-7 cells; experiment: Cell viability (MTT) assay, MCF-7; assay type: cell-based; details: Homo sapiens, read-out: Cell cytotoxicity assay IC50 MCF-7
Experimental: (§1) Human breast cancer (MCF-7), and human prostate cancer (PC-3) cells were cultured in their respective media supplemented with 10% fetal bovine serum (FBS). The cells were cultured at 1 × 10^4 cells per well, in a 96-well plate and incubated for 24-48 h to obtain cell attachments. Afterwards, the cells were treated with different concentrations of test compounds for 48 h and then incubated with 20 µL of 5 mg/mL 3-(4,5-dimethylthiazol-2-yl)-2,5-diphenyl tetrazolium bromide (MTT) solution for 4 h. After aspiration of the MTT solution, 100 µL of DMSO was added to each well to dissolve formazan crystals. The absorbance of each well was measured at the wavelength of 550 nm using an enzyme-linked immunosorbent assay reader. IC50 values were calculated from the curves generated by plotting the percentage of the viable cells versus the test concentration on a logarithmic scale using SigmaPlot 10.0 software.

[2] = system: PC-3 cells; experiment: Cell viability (MTT) assay, PC-3; assay type: cell-based; details: Homo sapiens, read-out: Cell cytotoxicity assay IC50 PC-3
Experimental: as §1

[3] = target: T1, 20S proteasome ChT-L activity (Homo sapiens, UniProt P28074); experiment: Cell-based 20S proteasome ChT-L inhibition assay in MCF-7 cells
T1 construct: This assay measures the ChT-L protease activity in cultured cells; endogenous in cells; host or cells: MCF-7 and PC-3 cells
Experimental: (§2) Cell-based proteasome inhibition assay
(§3) The effect of the derivatives on the 20S proteasome activity was determined using the 20S proteasome activity assay kit from Sigma (USA). This assay measures the ChT-L protease activity in cultured cells and is based on the detection of the fluorophore R110 after cleavage from the labeled substrate LLVY-R110. MCF-7 and PC-3 cells were pretreated with different concentrations of corresponding compounds and proteasome activities were determined according to the manufacturer′s protocol. Proteasome activity generates strongly green fluorescent R110, which was monitored at an excitation wavelength of 480 nm and emission of […] on a microplate fluorescence reader. All data were calculated by subtracting the blank control.

[4] = target: T1, 20S proteasome ChT-L activity; experiment: Cell-based 20S proteasome ChT-L inhibition assay in PC-3 cells
Experimental: as §2, §3

[5] = MCF7, MCF-7, MTT, 48 h treatment, mean ± SD of three independent experiments
[6] = PC-3, MTT, 48 h treatment, mean ± SD of three independent experiments
[7] = MCF7, MCF-7 cells, percent inhibition at 10 µM, ChT-L activity, LLVY-R110 substrate, read-out: 20S proteasome inhibition, Inhibition [%] MCF-7
[8] = MCF-7 cells, ChT-L activity, LLVY-R110 substrate
[9] = PC-3 cells, percent inhibition at 25 µM, ChT-L activity, LLVY-R110 substrate, read-out: 20S proteasome inhibition, Inhibition [%] PC-3
[10] = PC-3 cells, ChT-L activity, LLVY-R110 substrate

Compound	IC50 ([1]; MCF7, 48 h)	IC50 ([2]; PC-3, 48 h)	inhibition at 10 µM ([3]; MCF7, read-out: 20S proteasome inhibition, Inhibition [%] MCF-7)	inhibition at 25 µM ([4]; PC-3, read-out: 20S proteasome inhibition, Inhibition [%] PC-3)	IC50 [1, 5]	IC50 [2, 6]	inhibition at 10 µM [3, 7]	IC50 [3, 8]	inhibition at 25 µM [4, 9]	IC50 [4, 10]	melting point
CC(C)C[C@H](NC(=O)[C@H](Cc1ccccc1)NC(=O)c1cnccn1)B(O)O [Bortezomib, bortezomib, reference compound]	0.04 ± 0.01 µM	0.26 ± 0.02 µM	86.7 ± 5.1%	74 ± 4.6%	–	–	–	–	–	–	–
O=[N+]([O-])C=Cc1ccccc1 [Compound 1a, (2-nitrovinyl)benzene]	–	–	–	–	5.23 ± 0.17 µM	39.9 ± 0.97 µM	85.2 ± 5.9%	3.67 ± 0.27 µM	78.6 ± 3.2%	38 ± 3.24 µM	–
O=[N+]([O-])C=Cc1ccc(Cl)cc1 [Compound 1b, 1-chloro-4-(2-nitrovinyl)benzene]	–	–	–	–	7.11 ± 0.22 µM	78.4 ± 3.22 µM	93.9 ± 2.4%	5.63 ± 0.39 µM	84.3 ± 2.7%	48 ± 5.39 µM	–
Cc1ccc(C=C[N+](=O)[O-])cc1 [Compound 1c, 1-methyl-4-(2-nitrovinyl)benzene]	–	–	–	–	9.63 ± 0.25 µM	70.4 ± 4.33 µM	88.9 ± 4.6%	5.23 ± 0.15 µM	80.1 ± 5.4%	36 ± 2.14 µM	–
COc1ccc(C=C[N+](=O)[O-])cc1 [Compound 1d, 1-methoxy-4-(2-nitrovinyl) benzene]	–	–	–	–	2.2 ± 0.06 µM	60.3 ± 5.11 µM	89.6 ± 4.4%	1.21 ± 0.07 µM	84.5 ± 3.9%	29.4 ± 2.91 µM	–
CN(C)c1ccc(C=C[N+](=O)[O-])cc1 [Compound 1e, N, N-dimethyl-4-(2-nitrovinyl)benzenamine]	–	–	–	–	43.9 ± 1.27 µM	188 ± 10.3 µM	–	> 50 µM	–	> 50 µM	–
O=[N+]([O-])C(=Cc1ccccc1)CO [Compound 2a, 2-Nitro-3-phenylprop-2-en-1-ol]	2.4 ± 0.08 µM	29.27 ± 0.12 µM	–	–	–	–	90.3 ± 5%	1.7 ± 0.02 µM	72.4 ± 2.2%	21.7 ± 1.17 µM	–
O=[N+]([O-])C(=Cc1ccc(Cl)cc1)CO [Compound 2b, 2-Nitro-3-(4-chlorophenyl)prop-2-en-1-ol]	17.34 ± 0.13 µM	20.79 ± 0.01 µM	–	–	–	–	44.1 ± 2.8%	10.3 ± 0.17 µM	40.3 ± 1.9%	22.02 ± 0.09 µM	–
Cc1ccc(C=C(CO)[N+](=O)[O-])cc1 [Compound 2c, 2-Nitro-3-(4-tolyl)prop-2-en-1-ol]	5.08 ± 0.05 µM	46.6 ± 6.72 µM	–	–	–	–	93.4 ± 5.2%	2.82 ± 0.06 µM	87 ± 4.1%	25.9 ± 2.37 µM	52 to 54 °C
COc1ccc(C=C(CO)[N+](=O)[O-])cc1 [Compound 2d, 2-Nitro-3-(4-methoxyphenyl)prop-2-en-1-ol]	1.17 ± 0.04 µM	32.3 ± 2.04 µM	–	–	–	–	85 ± 6.1%	0.71 ± 0.01 µM	86.3 ± 5%	17.8 ± 1.05 µM	–
O=[N+]([O-])C(=Cc1ccccc1)Cc1ccccc1 [Compound 4a, 3-(phenyl)-2-nitroallylbenzene]	10.7 ± 0.16 µM	48.8 ± 2.71 µM	–	–	–	–	54.9 ± 4.3%	7.56 ± 0.11 µM	42.7 ± 3.6%	39.6 ± 16.3 µM	–
O=[N+]([O-])C(=Cc1ccc(Cl)cc1)Cc1ccccc1 [Compound 4b, 3-(4-chlorophenyl)-2-nitroallylbenzene]	15.9 ± 0.2 µM	70.74 ± 0.08 µM	–	–	–	–	50.4 ± 3.9%	11.1 ± 0.17 µM	63.9 ± 4.4%	40.22 ± 0.07 µM	98 to 100 °C
Cc1ccc(C=C(Cc2ccccc2)[N+](=O)[O-])cc1 [Compound 4c, 3-(4-methylphenyl)-2-nitroallylbenzene]	16.56 ± 0.12 µM	62.7 ± 4.21 µM	–	–	–	–	48.2 ± 2.8%	9.92 ± 0.27 µM	50.8 ± 2.7%	30.1 ± 3.74 µM	105 to 107 °C
COc1ccc(C=C(Cc2ccccc2)[N+](=O)[O-])cc1 [Compound 4d, 3-(4-methoxyphenyl)-2-nitroallylbenzene]	4.72 ± 0.07 µM	79.6 ± 4.6 µM	–	–	–	–	60.4 ± 4.1%	3.57 ± 0.13 µM	54.4 ± 3.3%	42.8 ± 5.11 µM	53 to 56 °C
CN(C)c1ccc(C=C(Cc2ccccc2)[N+](=O)[O-])cc1 [Compound 4e, N, N-dimethyl-4-(2-nitro-3-phenylprop-1-enyl)benzenamine]	20.85 ± 0.09 µM	332 ± 12.3 µM	–	–	–	–	–	> 50 µM	–	> 50 µM	110 to 113 °C
Cc1ccc(C=C(CC(C)C)[N+](=O)[O-])cc1 [Compound 6a, 1-methyl-4-(4-methyl-2-nitropent-1-enyl)benzene]	24.08 ± 0.18 µM	73.1 ± 3.63 µM	–	–	–	–	43.9 ± 0.98%	13.7 ± 4.64 µM	40.3 ± 1.2%	36.1 ± 4.1 µM	–
COc1ccc(C=C(CC(C)C)[N+](=O)[O-])cc1 [Compound 6b, 1-methoxy-4-(4-methyl-2-nitropent-1-enyl)benzene]	5.27 ± 0.03 µM	60.07 ± 0.01 µM	–	–	–	–	45.7 ± 3.6%	3.82 ± 0.15 µM	50.2 ± 3.5%	20.5 ± 1.09 µM	–
